Legend:
IFN-γ [1] = experiment: IFN-γ Levels in Chlamydia Patients (ProCon IFN-γ assay, 492 nm); format: in vivo, human; settings: urogenital chlamydiosis patients, First Group: claritomycin, doxycyclin and ofloxacin in succession; after treatment
Method: Among other cytokine levels, levels of IFN-γ were determined for three groups, each including fifteen (15) individuals, and compared with IFN-γ levels of the aforementioned group of fifteen (15) “normal” blood donors. The individuals of a first group were treated with 500 mg of claritomycin twice daily for ten (10) to fourteen (14) days, 100 mg of doxycyclin once daily for ten (10) days, and 200 mg of ofloxacin twice daily for ten (10) days, with the drugs having been administered in succession. The individuals of the second group received 500 mg of claritomycin twice daily for ten (10) to fourteen (14) days and one capsule of TRANSFER FACTOR PLUS three times each day for ten (10) days, with treatment with the claritomycin and TRANSFER FACTOR PLUS beginning on the same day. In the third group, each individual was treated with 500 mg of claritomycin twice daily for ten (10) to fourteen (14) days and one capsule of TRANSFER FACTOR thrice daily for ten (10) days, with administration of the claritomycin and TRANSFER FACTOR PLUS having begun on the same day. […] The following TABLE 5 lists the collective measures of IFN-γ in all three groups, as determined by use of the ProCon IFN-γ assay available from Protein Contour and photometrically measured at a wavelength of 492 nm. […]

IFN-γ [2] = experiment: IFN-γ Levels in Chronic Opisthorchiasis Patients (ProCon IFN-γ assay, 492 nm); format: in vivo, human; settings: Second Group: praziquantel only, two weeks after treatment
Source text: Forty-five (45) individuals with chronic opisthorchiasis were split into two groups: a first group including twenty-five (25) individuals and a second group including twenty (20) individuals. The individuals of both groups received conventional praziquantel treatment, an anti-parasitic, or antihelminthic, drug which is used in the treatment of opisthorchiasis and is available under the trade name BILTHRICIDE™ from Bayer AG of Leverkusen, Germany. In addition to praziquantel, two capsules of TRANSFER FACTOR PLUS were administered to the individuals of the first group following praziquantel treatment, three times daily for seven days. The individuals of the second group were only treated with praziquantel.
Levels of various cytokines, including γ-interferon (IFN-γ), antibodies, and immune complexes were determined, by known processes, for each the individuals prior to therapy and two weeks following TRANSFER FACTOR PLUS therapy in the individuals of the […] was discontinued. The following TABLE 4 lists the collective measures of IFN-γ in both groups, as determined by use of the ProCon IFN-γ assay available from Protein Contour of St. Petersburg, Russia, and photometrically measured at a wavelength of 492 nm. TABLE 4 also includes a collective measure of the IFN-γ levels of fifteen (15) “normal” blood donors.

| Compound | IFN-γ level (IFN-γ [1]) | IFN-γ level (IFN-γ [2]) |
| --- | --- | --- |
| CC[C@H]1OC(=O)[C@H](C)[C@@H](O[C@H]2C[C@@](C)(OC)[C@@H](O)[C@H](C)O2)[C@H](C)[C@@H](O[C@@H]2O[C@H](C)C[C@H](N(C)C)[C@H]2O)[C@](C)(OC)C[C@@H](C)C(=O)[C@H](C)[C@@H](O)[C@]1(C)O [claritomycin] | 31.4 ± 6.1 |  |
| O=C(C1CCCCC1)N1CC(=O)N2CCc3ccccc3C2C1 (centres unmarked) [praziquantel] |  | 51.4 ± 6.3 |

Source: patent US20050233967A1, “Compositions, systems, and methods for focusing a cell-mediated immune response” (priority 2002, published 2005)
